Source: patent US8841513B2, “Procedure for producing transgenic plants providing high starch content and yield and high amylose/amylopectin balance” (priority 2008, dated 2014)
Like-named read-outs stand apart in the source and are kept apart here.

Experiments:
GP of E. coli [1] = molecular target: T1, GP of E. coli (Escherichia coli, UniProt P0AC86, E280D/L281V); test: Substrate specificity of GP of E. coli (products by HPLC with amperometric detection); assay type: biochemical
T1 construct: His tag (pET-15b) (N); made in house; host or cells: E. coli BL21 (DE3) C43 transformed with pET15b-glgP (CECT 7071)
Method: The enzymatic reactions were carried out at 37° C. GP activities were measured in the sense of the analysed polyglucan degradation. […] The reaction was stopped after boiling for 2 minutes and centrifuging at 30,000 g for 20 minutes. The existing released G1P in the supernatant was determined by any of the following methods: • By spectrophotometry. 300 μL of mixture containing Hepes 50 mM pH 7, EDTA 1 mM, MgCl2 2 mM, KCl 15 mM, NAD^+ 0.6 mM, a unit of phosphoglucomutase and another of glucose-6-phosphate dehydrogenase of Leuconostoc mesenteroides, and 30 μL of supernatant resulting from step one were incubated for 20 minutes. The production of NADH was monitored at 340 nm using a Multiskan EX spectrophotometer (Labsystems). […] 40 μL of the supernatant from step 1 were subjected to high affinity liquid chromatography using a DX-500 Dionex system fitted to a Carbo-Pac PA10 column and amperometric detection.

GP of E. coli [2] = molecular target: T1, GP of E. coli; assay type: biochemical
Method: The enzymatic reactions were carried out at 37° C. GP activities were measured in the sense of the analysed polyglucan degradation. In a first step, 50 μL of reaction mixture consisting of 50 mM HEPES (pH 7.5), 30 mM phosphate buffer (pH 7.5), polyglucan (equivalent to 10 mM glucose) and protein extract, were incubated for 15 minutes. The reaction was stopped after boiling for 2 minutes and centrifuging at 30,000 g for 20 minutes. The existing released G1P in the supernatant was determined by any of the following methods: • By spectrophotometry. 300 μL of mixture containing Hepes 50 mM pH 7, EDTA 1 mM, MgCl2 2 mM, KCl 15 mM, NAD^+ 0.6 mM, a unit of phosphoglucomutase and another of glucose-6-phosphate dehydrogenase of Leuconostoc mesenteroides, and 30 μL of supernatant resulting from step one were incubated for 20 minutes. The production of NADH was monitored at 340 nm using a Multiskan EX spectrophotometer (Labsystems). […] 40 μL of the supernatant from step 1 were subjected to high affinity liquid chromatography using a DX-500 Dionex system fitted to a Carbo-Pac PA10 column and amperometric detection.
The unit (U) is defined as the amount of enzyme that catalyzes the production of 1 μmol of product per minute.

[3] = glucan 5 mM glucose, 30 mM Pi, 3 U recombinant GP, 3 hours, 37° C.
[4] = effector 2 mM, GP activity, no effector = 100
[5] = effector 3 mM, GP activity, no effector = 100
[6] = cell without unit, glucan 5 mM glucose, 3 U recombinant GP, 3 hours, 37° C.

T1 sequence (P0AC86 other isoform, or with tags, fused parts or gaps E280D/L281V): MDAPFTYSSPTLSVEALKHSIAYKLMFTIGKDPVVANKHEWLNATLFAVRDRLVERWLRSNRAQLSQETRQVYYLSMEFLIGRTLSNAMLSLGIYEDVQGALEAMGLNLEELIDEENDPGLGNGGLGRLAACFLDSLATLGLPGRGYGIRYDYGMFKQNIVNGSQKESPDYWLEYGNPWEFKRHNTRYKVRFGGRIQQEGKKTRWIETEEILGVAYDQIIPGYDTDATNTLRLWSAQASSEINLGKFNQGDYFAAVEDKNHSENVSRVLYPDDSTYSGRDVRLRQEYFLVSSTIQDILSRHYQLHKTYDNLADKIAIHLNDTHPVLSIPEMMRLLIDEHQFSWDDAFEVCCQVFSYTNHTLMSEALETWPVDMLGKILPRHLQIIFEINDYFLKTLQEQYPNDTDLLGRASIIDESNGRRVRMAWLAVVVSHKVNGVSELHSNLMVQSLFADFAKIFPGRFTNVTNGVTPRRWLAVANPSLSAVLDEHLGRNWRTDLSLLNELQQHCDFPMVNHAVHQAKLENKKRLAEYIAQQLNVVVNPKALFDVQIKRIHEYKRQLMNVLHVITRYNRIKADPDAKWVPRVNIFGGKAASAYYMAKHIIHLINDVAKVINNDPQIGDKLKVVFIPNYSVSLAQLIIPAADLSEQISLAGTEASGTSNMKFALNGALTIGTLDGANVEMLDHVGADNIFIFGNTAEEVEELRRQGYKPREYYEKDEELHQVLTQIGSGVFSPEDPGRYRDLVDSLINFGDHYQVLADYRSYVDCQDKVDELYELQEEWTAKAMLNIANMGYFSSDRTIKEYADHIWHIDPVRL

| Compound | Recognition as substrate by the GP of E. coli (GP of E. coli [1]) | Products: G1P (GP of E. coli [1]; [3]) | Products: Maltose (GP of E. coli [1]; [3]) | Inhibition of the GP of E. coli (GP of E. coli [2]) | Activity (U/mg protein) (GP of E. coli [2]; effector 2 mM) | % control (GP of E. coli [2]; [4]) | Products: Maltotriose (GP of E. coli [1]; [3]) | further results |
| --- | --- | --- | --- | --- | --- | --- | --- | --- |
| OC[C@H]1O[C@H](O[C@H]2[C@H](O)[C@@H](O)C(O)O[C@@H]2CO)[C@H](O)[C@@H](O)[C@@H]1O (mixture of isomers) [Maltose] | does not act on | b.d.l. | 5 mM | – | – | – | – | – |
| O=C(O)[C@H](O)COP(=O)(O)O [3-phosphoglycerate] | – | – | – | not to be inhibited | 8.9 U/mg protein | 111% | – | – |
| Nc1ncnc2c1ncn2[C@@H]1O[C@H](COP(=O)(O)OP(=O)(O)O[C@H]2O[C@H](CO)[C@@H](O)[C@H](O)[C@H]2O)[C@@H](O)[C@H]1O [ADPG, ADPglucose] | – | – | – | not to be inhibited | 8.3 U/mg protein | 104% | – | – |
| Nc1ncnc2c1ncn2[C@@H]1O[C@H](COP(=O)(O)OP(=O)(O)O)[C@@H](O)[C@H]1O [ADP] | – | – | – | not to be inhibited | 7.0 U/mg protein | 88% | – | – |
| Nc1ncnc2c1ncn2[C@@H]1O[C@H](COP(=O)(O)O)[C@@H](O)[C@H]1O [AMP] | – | – | – | not to be inhibited | – | – | – | Activity (U/mg protein) (GP of E. coli [2]; effector 3 mM): 7.6 U/mg protein; % control (GP of E. coli [2]; [5]): 95% |
| Nc1ncnc2c1ncn2[C@@H]1O[C@H](COP(=O)(O)OP(=O)(O)OP(=O)(O)O)[C@@H](O)[C@H]1O [ATP] | – | – | – | not to be inhibited | 4.8 U/mg protein | 60% | – | – |
| Nc1ncnc2c1ncn2[C@@H]1O[C@@H]2COP(=O)(O)O[C@H]2[C@H]1O [Cyclic AMP] | – | – | – | – | – | – | – | % control (GP of E. coli [2]): 91%; Activity (U/mg protein) (GP of E. coli [2]): 7.3 U/mg protein |
| O=C(COP(=O)(O)O)[C@@H](O)[C@H](O)[C@H](O)COP(=O)(O)O [Fructose-1,6-bisphosphate] | – | – | – | not to be inhibited | 9.0 U/mg protein | 113% | – | – |
| O=C(CO)[C@@H](O)[C@H](O)[C@H](O)COP(=O)(O)O [Fructose-6-phosphate] | – | – | – | not to be inhibited | 8.4 U/mg protein | 105% | – | – |
| O=C[C@H](O)[C@@H](O)[C@H](O)[C@H](O)COP(=O)(O)O [Glucose-6-phosphate] | – | – | – | not to be inhibited | 7.6 U/mg protein | 95% | – | – |
| OC[C@H]1O[C@H](O[C@H]2[C@H](O)[C@@H](O)[C@@H](O[C@H]3[C@H](O)[C@@H](O)[C@@H](O[C@H]4[C@H](O)[C@@H](O)[C@@H](O[C@H]5[C@H](O)[C@@H](O)[C@@H](O[C@H]6[C@H](O)[C@@H](O)[C@@H](O[C@H]7[C@H](O)[C@@H](O)C(O)O[C@@H]7CO)O[C@@H]6CO)O[C@@H]5CO)O[C@@H]4CO)O[C@@H]3CO)O[C@@H]2CO)[C@H](O)[C@@H](O)[C@@H]1O (some centres unmarked) [Maltoheptose] | recognizes | 2.1 mM | b.d.l. | – | – | – | b.d.l. | Products: Maltoheptose (GP of E. coli [1]; [3]): 1.3 mM; Products: Maltohexose (GP of E. coli [1]; [3]): 1 mM; Products: Maltopentaose (GP of E. coli [1]; [3]): 0.4 mM; Products: Maltotetraose (GP of E. coli [1]; [3]): 0.2 mM |
| OC[C@H]1O[C@H](O[C@H]2[C@H](O)[C@@H](O)[C@@H](O[C@H]3[C@H](O)[C@@H](O)[C@@H](O[C@H]4[C@H](O)[C@@H](O)[C@@H](O[C@H]5[C@H](O)[C@@H](O)[C@@H](O[C@H]6[C@H](O)[C@@H](O)C(O)O[C@@H]6CO)O[C@@H]5CO)O[C@@H]4CO)O[C@@H]3CO)O[C@@H]2CO)[C@H](O)[C@@H](O)[C@@H]1O (some centres unmarked) [Maltohexose] | recognizes | 1.7 mM | b.d.l. | – | – | – | b.d.l. | Products: Maltoheptose (GP of E. coli [1]; [6]): 0.1; Products: Maltohexose (GP of E. coli [1]; [3]): 2.1 mM; Products: Maltopentaose (GP of E. coli [1]; [3]): 0.5 mM; Products: Maltotetraose (GP of E. coli [1]; [3]): 0.6 mM |
| OC[C@H]1O[C@H](O[C@H]2[C@H](O)[C@@H](O)[C@@H](O[C@H]3[C@H](O)[C@@H](O)[C@@H](O[C@H]4[C@H](O)[C@@H](O)C(O)O[C@@H]4CO)O[C@@H]3CO)O[C@@H]2CO)[C@H](O)[C@@H](O)[C@@H]1O (some centres unmarked) [Maltotetraose] | does not act on | b.d.l. | b.d.l. | – | – | – | b.d.l. | Products: Maltotetraose (GP of E. coli [1]; [3]): 5 mM |
| O=P(O)(O)OP(=O)(O)O [Pyrophosphate] | – | – | – | – | – | – | – | Activity (U/mg protein) (GP of E. coli [2]; effector 3 mM): 7.8 U/mg protein; % control (GP of E. coli [2]; [5]): 98% |
| Glycogen | recognizes | 0.5 mM | b.d.l. | – | – | – | b.d.l. | Products: Glycogen (GP of E. coli [1]; [3]): 4.5 mM; Products: Maltoheptose (GP of E. coli [1]; [3]): b.d.l.; Products: Maltohexose (GP of E. coli [1]; [3]): b.d.l.; Products: Maltopentaose (GP of E. coli [1]; [3]): b.d.l.; Products: Maltotetraose (GP of E. coli [1]; [3]): b.d.l. |
| Maltopentaose | recognizes | 1.6 mM | b.d.l. | – | – | – | b.d.l. | Products: Maltohexose (GP of E. coli [1]; [6]): 0.2; Products: Maltoheptose (GP of E. coli [1]; [3]): b.d.l.; Products: Maltopentaose (GP of E. coli [1]; [3]): 2.2 mM; Products: Maltotetraose (GP of E. coli [1]; [3]): 1.0 mM |
| Maltotriose | does not act on | b.d.l. | b.d.l. | – | – | – | 5 mM | – |
| starch | recognizes | – | – | – | – | – | – | – |
